Structures can show the parent of a compound that is named as a salt.
SMILES	melting point
COC(=O)COc1ccc(C(=O)CN2Cc3cc(C(=N)NO)ccc3C2=O)cc1 (hydrate or solvate) [Example 2, (4-{2-[5-(N-Hydroxycarbamimidoyl)-1-oxo-1,3-dihydro-isoindol-2-yl]-acetyl}-phenoxy)-acetic acid methyl ester]	175 to 176 °C
CCOC(=O)COc1cc(O)c(C(=O)CN2Cc3cc(C(=N)NO)ccc3C2=O)cc1C(C)C [Example 51, (5-Hydroxy-4-{2-[5-(N-hydroxycarbamimidoyl)-1-oxo-1,3-dihydro-isoindol-2-yl]-acetyl}-2-isopropyl-phenoxy)-acetic acid ethyl ester]	207 to 209 °C
CCOC(=O)COc1ccc(C(=O)CN2Cc3cc(C(=N)NC(=O)OCC(C)C)ccc3C2=O)cc1N(CC(=O)OCC)S(C)(=O)=O (hydrate or solvate) [Example 39, (2-{Ethoxycarbonylmethyl-methanesulfonyl-amino}-4-{2-[5-(imino-isobutoxycarbonylamino-methyl)-1-oxo-1,3-dihydro-isoindol-2-yl]-acetyl}-phenoxy)-acetic acid ethyl ester]	80 to 82 °C
CCOC(=O)COc1ccc(C(=O)CN2Cc3cc(C(=N)NC(=O)OCC(C)C)ccc3C2=O)cc1Cl [Example 31, (2-Chloro-4-{2-[5-(imino-isobutoxycarbonylamino-methyl)-1-oxo-1,3-dihydro-isoindol-2-yl]-acetyl}-phenoxy)-acetic acid ethyl ester]	178 to 179 °C
CCOC(=O)COC1CCN(C(=O)CN2Cc3cc(C(=N)NO)ccc3C2=O)CC1 [Example 68, (1-{2-[5-(N-Hydroxycarbamimidoyl)-1-oxo-1,3-dihydro-isoindol-2-yl]-acetyl}-piperidin-4-yloxy)-acetic acid ethyl ester]	204 to 206 °C
CC(C)OC(=O)COc1ccc(C(=O)CN2Cc3cc(C(=N)NO)ccc3C2=O)cc1 (hydrate or solvate) [Example 9, (4-{2-[5-(N-Hydroxycarbamimidoyl)-1-oxo-1,3-dihydro-isoindol-2-yl]-acetyl}-phenoxy)-acetic acid isopropyl ester]	164 to 166 °C
CC(C)COC(=O)NC(=N)c1ccc2c(c1)CN(CC(=O)c1ccc(OCC(=O)OCc3ccccc3)cc1)C2=O (hydrate or solvate) [Example 19, (4-{2-[5-(Imino-isobutoxycarbonylamino-methyl)-1-oxo-1,3-dihydro-isoindol-2-yl]-acetyl}-phenoxy)-acetic acid benzyl ester]	162 to 163 °C
Cc1c(OCC(=O)OCc2ccccc2)ccc(C(=O)CN2Cc3cc(C(=N)NO)ccc3C2=O)c1O (hydrate or solvate) [Example 56, (3-Hydroxy-4-{2-[5-(N-hydroxycarbamimidoyl)-1-oxo-1,3-dihydro-isoindol-2-yl]-acetyl}-2-methyl-phenoxy)-acetic acid benzyl ester]	200 °C
CC(C)COC(=O)COc1ccc(C(=O)CN2Cc3cc(C(=N)NS(C)(=O)=O)ccc3C2=O)cc1 [Example 14, (4-{2-[5-(Imino-methanesulfonylamino-methyl)-1-oxo-1,3-dihydro-isoindol-2-yl]-acetyl}-phenoxy)-acetic acid isobutyl ester]	177 to 178 °C
CCOC(=O)C(CCNC(=O)OCc1ccccc1)Oc1ccc(C(=O)CN2Cc3cc(C(=N)N)ccc3C2=O)cc1 (stereo not drawn) (as salt: salt) [Example 27, 4-Benzyloxycarbonylamino-2-(4-{2-[5-carbamimidoyl-1-oxo-1,3-dihydro-isoindol-2-yl]-acetyl}-phenoxy)-butyric acid ethyl ester]	164 to 165 °C
COC(=O)CSc1ccc(C(=O)CN2Cc3cc(C(=N)NO)ccc3C2=O)cc1 [Example 29, (4-{2-[5-(N-Hydroxycarbamimidoyl)-1-oxo-1,3-dihydro-isoindol-2-yl]-acetyl}-phenylsulfanyl)-acetic acid methyl ester]	193 to 194 °C
C=CCOc1cc(OCC(=O)OCC)ccc1C(=O)CN1Cc2cc(C(=N)NO)ccc2C1=O (hydrate or solvate) [Example 83, (3-Allyloxy-4-{2-[5-(N-hydroxycarbamimidoyl)-1-oxo-1,3-dihydro-isoindol-2-yl]-acetyl}-phenoxy)-acetic acid ethyl ester]	182 to 183 °C
CC(C)OC(=O)COc1ccc(C(=O)CN2Cc3cc(C(=N)N)ccc3C2=O)cc1 (hydrate or solvate) [Example 5, (4-{2-[5-Carbamimidoyl-1-oxo-1,3-dihydro-isoindol-2-yl]-acetyl}-phenoxy)-acetic acid isopropyl ester]	162 °C

The remaining lines, values ahead:

melting point	SMILES
172 to 173 °C	CCOC(=O)COc1ccc(C(=O)CN2Cc3cc(C(=N)N)ccc3C2=O)cc1Cl (as salt: salt) [Example 30, (4-{2-[5-Carbamimidoyl-1-oxo-1,3-dihydro-isoindol-2-yl]-acetyl}-2-chloro-phenoxy)-acetic acid ethyl ester]
190 to 191 °C	CCOC(=O)COc1ccc(C(=O)CN2Cc3cc(C(=N)NO)ccc3C2=O)cc1SCC (hydrate or solvate) [Example 34, (2-Ethylsulfanyl-4-{2-[5-(N-hydroxycarbamimidoyl)-1-oxo-1,3-dihydro-isoindol-2-yl]-acetyl}-phenoxy)-acetic acid ethyl ester]
165 to 167 °C	CCOC(=O)COc1ccc(C(=O)CN2Cc3cc(C(=N)NO)ccc3C2=O)cc1N(CC(=O)OCC)S(C)(=O)=O [Example 40, (2-{Ethoxycarbonylmethyl-methanesulfonyl-amino}-4-{2-[5-(N-hydroxycarbamimidoyl)-1-oxo-1,3-dihydro-isoindol-2-yl]-acetyl}-phenoxy)-acetic acid ethyl ester]
135 to 136 °C	N=C(N)c1ccc2c(c1)CN(CC(=O)N1CCC(OCC(=O)O)CC1)C2=O (as salt: hydrochloride) (hydrate or solvate) [Example 73, (1-{2-[5-Carbamimidoyl-1-oxo-1,3-dihydro-isoindol-2-yl]-acetyl}-piperidin-4-yloxy)-acetic acid]
211 to 212 °C	CCCc1c(OCC(=O)OCC)ccc(C(=O)CN2Cc3cc(C(=N)NO)ccc3C2=O)c1O [Example 58, (3-Hydroxy-4-{2-[5-(N-hydroxycarbamimidoyl)-1-oxo-1,3-dihydro-isoindol-2-yl]-acetyl}-2-propyl-phenoxy)-acetic acid ethyl ester]
183 to 184 °C	CCOC(=O)COc1c(SCC)cc(C(=O)CN2Cc3cc(C(=N)NO)ccc3C2=O)cc1SCC [Example 37, (2,6-Bis-ethylsulfanyl-4-{2-[5-(N-hydroxycarbamimidoyl)-1-oxo-1,3-dihydro-isoindol-2-yl]-acetyl}-phenoxy)-acetic acid ethyl ester]
186 to 188 °C	CCOC(=O)COc1ccc(C(=O)CN2Cc3cc(C(=N)N)ccc3C2=O)c(OCC(=O)OCC)c1 (as salt: salt) (hydrate or solvate) [Example 47, (4-{2-[5-Carbamimidoyl-1-oxo-1,3-dihydro-isoindol-2-yl]-acetyl}-3-ethoxycarbonylmethoxy-phenoxy)-acetic acid ethyl ester]
201 to 202 °C	CCOC(=O)COc1ccc(C(=O)CN2Cc3cc(C(=N)NO)ccc3C2=O)cc1Cl [Example 32, (2-Chloro-4-{2-[5-(N-hydroxycarbamimidoyl)-1-oxo-1,3-dihydro-isoindol-2-yl]-acetyl}-phenoxy)-acetic acid ethyl ester]
